Holding throughout (type): cell-based, mouse
For assay [1], the system named is NIH3T3 cells overexpressing p53(wt). Briefly: MTT cell viability, p53(wt) overexpressing cells vs parental line. As to conditions: p53(wt) high-expressing cells / parental cell line, 3 to 4 days. Here is the method: (§1) With regard to the function-known genes, the genes shown in the left column of Table 2 were used. With regard to the drugs, those shown in Table 1 were dissolved in DMSO to an extent of 100-fold of the maximum concentration for the search of the drugs and used. With regard to the cells, incubated NIH3T3 or ras-NIH3T3 cells were used.
(§2) Full-length cDNA of each function-known genes was incorporated into an expression vector (pRc-CMV, etc.) and transfected into NIH3T3 cells by a common method. Transformed cells were isolated using the resistance to G-418 as an index and the expression of the transfected gene in each cell was investigated by Western blotting method to select a highly expressing line.
(§3) Cell viabilities were measured according to the following procedures.
(§4) 1) From the 2nd to the 11th rows of a 96-well plate were filled with DMEM (50 μl). The 12th row was filled with 100 μl of DMEM.
(§5) 2) The 1st row was filled with 98 μl of DMEM.
(§6) 3) Drugs (2 μl each) were added into the 1st row.
(§7) 4) Continuous double-dilution was conducted from the 1st to the 9th rows. Fifty μl were taken out from the 9th row and discarded. The plate was preserved in a CO2 incubator.
(§8) 5) Cells (each high-expressing cells and the parental cell line) were detached from the medium using a trypsin solution, suspended in 10% CS-DMEM and transferred to a test tube and cell numbers (cell/ml) were counted.
(§9) 6) The cells were diluted to a concentration of 1×10^5 cells/ml, and 50 μl of the cell suspension were added to the 1st to the 11th rows of the plate followed by gently stirring.
(§10) 7) The plate was transferred to the CO2 incubator and incubated for 3 to 4 days.
(§11) 8) MTT (5 mg/ml in PBS) (10 μl) was added to the 1st to the 12th rows of the plate and incubated in the CO2 incubator at 37° C. for 4 hours.
(§12) 9) A reaction stop solution (0.04N HCl in isopropanol) (150 μl) was added followed by mixing well and being allowed to stand at room temperature for about 2 hours.
(§13) 10) Coloration of formazan which was a metabolite of the MTT dye was measured using a microplate reader. The measurement wavelength was 574 nm and the reference wavelength was 655 nm. The 10th and the 11th rows of the plate were 100% controls and the 12th row was a 0% control.
(§14) As an index for the sensitivity of highly gene-expressing cells and the parental cell line to various drugs, each of the IC40 values thereof was specified and ratios of the IC40 values were calculated. […] After that, logarithmic values of ratios of IC40 values were calculated from each gene.

Assay [2] concerns NIH3T3 cells overexpressing Cip-1. Briefly: MTT cell viability, Cip-1 overexpressing cells vs parental line. As to conditions: Cip-1 high-expressing cells / parental cell line, 3 to 4 days. The procedure:
as §1, §2, §3, §4, §5, §6, §7, §8, §9, §10, §11, §12, §13, §14

For assay [3], the system named is NIH3T3 cells overexpressing RhoA-DN. As to the kind of experiment: MTT cell viability, RhoA-DN overexpressing cells vs parental line. Conditions: RhoA-DN high-expressing cells / parental cell line, 3 to 4 days. Here is the method:
as §1, §2, §3, §4, §5, §6, §7, §8, §9, §10, §11, §12, §13, §14

For assay [4], the system named is NIH3T3 cells overexpressing Gluco-corticoid-R. Briefly: MTT cell viability, Gluco-corticoid-R overexpressing cells vs parental line. As to conditions: Gluco-corticoid-R high-expressing cells / parental cell line, 3 to 4 days. The procedure: as §1, §2, §3, §4, §5, §6, §7, §8, §9, §10, §11, §12, §13, §14
Assay [5] has as its system NIH3T3 cells overexpressing ERK-DN. Briefly: MTT cell viability, ERK-DN overexpressing cells vs parental line. As to conditions: ERK-DN high-expressing cells / parental cell line, 3 to 4 days. The procedure: as §1, §2, §3, §4, §5, §6, §7, §8, §9, §10, §11, §12, §13, §14
The subject of assay [6] is NIH3T3 cells overexpressing HSP9O. Briefly: MTT cell viability, HSP9O overexpressing cells vs parental line. Conditions: HSP9O high-expressing cells / parental cell line, 3 to 4 days. The procedure:
as §1, §2, §3, §4, §5, §6, §7, §8, §9, §10, §11, §12, §13
(§15) As an index for the sensitivity of highly gene-expressing cells and the parental cell line to various drugs, each of the IC40 values thereof was specified and ratios of the IC40 values were calculated. FIG. 2 and FIG. 3 are the examples where ratios of IC40 values were calculated from a curve showing the dependency on the concentration of the chemical versus the viability. After that, logarithmic values of ratios of IC40 values were calculated from each gene.

The test system of assay [7] is NIH3T3 cells overexpressing CaMKIIa-Active. Briefly: MTT cell viability, CaMKIIa-Active overexpressing cells vs parental line. As to conditions: CaMKIIa-Active high-expressing cells / parental cell line, 3 to 4 days. Here is the method:
as §1, §2, §3, §4, §5, §6, §7, §8, §9, §10, §11, §12, §13, §15

With sodium vanadate, the “logarithmic value of ratio of IC40 values” in assay [1] is listed as 0.00; in assay [2] it was 0.00; in assay [3], −0.12; in assay [4], 0.03; in assay [5], 0.00; in assay [6], 0.02. In addition, the “logarithmic value of ratio of IC40 values” in assay [7] turned out to be 0.01.

For the origin of these results see patent publication US20040086901A1, “Database for analyzing gene function and method of analyzing gene function by dspa” (priority 2000, published 2004).
